Measurements: PubChem BioAssay (NCI)
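Following 48 hours of exposure in 96-well plates, responses at five concentrations were used to interpolate endpoints linearly. GI50 marks 50% less growth. At the TGI there is no net growth.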

Experiments:
Assay in all cases: growth of human tumour cells (NCI), 48 h
T-47D breast = tested on: T-47D breast
TK-10 renal = tested on: TK-10 renal
OVCAR-5 ovarian = tested on: OVCAR-5 ovarian
U251 CNS = tested on: U251 CNS
A549 NSCLC = tested on: A549 NSCLC
SW-620 colon = tested on: SW-620 colon
EKVX NSCLC = tested on: EKVX NSCLC
HOP-92 NSCLC = tested on: HOP-92 NSCLC
BT-549 breast = tested on: BT-549 breast
SF-539 CNS = tested on: SF-539 CNS
NCI-H226 lung = tested on: NCI-H226 lung
K-562 leukemia = tested on: K-562 leukemia
KM12 colon = tested on: KM12 colon
SK-OV-3 ovarian = tested on: SK-OV-3 ovarian
MDA-MB-231 breast = tested on: MDA-MB-231 breast
SN12C renal = tested on: SN12C renal
A498 renal = tested on: A498 renal
786-0 renal = tested on: 786-0 renal
SK-MEL-2 melanoma = tested on: SK-MEL-2 melanoma
UACC-257 melanoma = tested on: UACC-257 melanoma
UO-31 renal = tested on: UO-31 renal
NCI-H460 lung = tested on: NCI-H460 lung
NCI/ADR-RES ovarian = tested on: NCI/ADR-RES ovarian
OVCAR-3 ovarian = tested on: OVCAR-3 ovarian
M14 melanoma = tested on: M14 melanoma
PC-3 prostate = tested on: PC-3 prostate
HS 578T breast = tested on: HS 578T breast
SNB-19 CNS = tested on: SNB-19 CNS
SR leukemia = tested on: SR leukemia
MOLT-4 leukemia = tested on: MOLT-4 leukemia
SNB-75 CNS = tested on: SNB-75 CNS
LOX IMVI melanoma = tested on: LOX IMVI melanoma
NCI-H23 lung = tested on: NCI-H23 lung
RPMI-8226 leukemia = tested on: RPMI-8226 leukemia
HCC-2998 colon = tested on: HCC-2998 colon
OVCAR-4 ovarian = tested on: OVCAR-4 ovarian
SF-295 CNS = tested on: SF-295 CNS
UACC-62 melanoma = tested on: UACC-62 melanoma
NCI-H522 lung = tested on: NCI-H522 lung
RXF 393 renal = tested on: RXF 393 renal
HCT-15 colon = tested on: HCT-15 colon
SF-268 CNS = tested on: SF-268 CNS
MDA-MB-435 = tested on: MDA-MB-435
SK-MEL-5 melanoma = tested on: SK-MEL-5 melanoma
HT29 colon = tested on: HT29 colon
HL-60(TB) leukemia = tested on: HL-60(TB) leukemia
SK-MEL-28 melanoma = tested on: SK-MEL-28 melanoma
HOP-62 NSCLC = tested on: HOP-62 NSCLC
IGROV1 ovarian = tested on: IGROV1 ovarian
COLO 205 colon = tested on: COLO 205 colon
DU-145 prostate = tested on: DU-145 prostate
MALME-3M melanoma = tested on: MALME-3M melanoma
CCRF-CEM leukemia = tested on: CCRF-CEM leukemia
OVCAR-8 ovarian = tested on: OVCAR-8 ovarian
ACHN renal = tested on: ACHN renal

[2H]c1nc(C)nc([2H])c1-c1cc(NC[C@@H](C)c2cccc3c(C(=O)NC)ccnc23)ncn1
GI50 (T-47D breast): 29 µM | TGI (T-47D breast): > 100 µM | GI50 (TK-10 renal): > 100 µM | TGI (TK-10 renal): > 100 µM | GI50 (OVCAR-5 ovarian): > 100 µM | TGI (OVCAR-5 ovarian): > 100 µM | GI50 (U251 CNS): > 100 µM | TGI (U251 CNS): > 100 µM | GI50 (A549 NSCLC): > 100 µM | TGI (A549 NSCLC): > 100 µM | GI50 (SW-620 colon): > 100 µM | TGI (SW-620 colon): > 100 µM | GI50 (EKVX NSCLC): > 100 µM | TGI (EKVX NSCLC): > 100 µM | GI50 (HOP-92 NSCLC): > 100 µM | TGI (HOP-92 NSCLC): > 100 µM | GI50 (BT-549 breast): > 100 µM | TGI (BT-549 breast): > 100 µM | GI50 (SF-539 CNS): > 100 µM | TGI (SF-539 CNS): > 100 µM | GI50 (NCI-H226 lung): > 100 µM | TGI (NCI-H226 lung): > 100 µM | GI50 (K-562 leukemia): 80.6 µM | TGI (K-562 leukemia): > 100 µM | GI50 (KM12 colon): > 100 µM | TGI (KM12 colon): > 100 µM | GI50 (SK-OV-3 ovarian): > 100 µM | TGI (SK-OV-3 ovarian): > 100 µM | GI50 (MDA-MB-231 breast): > 100 µM | TGI (MDA-MB-231 breast): > 100 µM | GI50 (SN12C renal): > 100 µM | TGI (SN12C renal): > 100 µM | GI50 (A498 renal): > 100 µM | TGI (A498 renal): > 100 µM | GI50 (786-0 renal): > 100 µM | TGI (786-0 renal): > 100 µM | GI50 (SK-MEL-2 melanoma): > 100 µM | TGI (SK-MEL-2 melanoma): > 100 µM | GI50 (UACC-257 melanoma): > 100 µM | TGI (UACC-257 melanoma): > 100 µM | GI50 (UO-31 renal): > 100 µM | TGI (UO-31 renal): > 100 µM | GI50 (NCI-H460 lung): > 100 µM | TGI (NCI-H460 lung): > 100 µM | GI50 (NCI/ADR-RES ovarian): > 100 µM | TGI (NCI/ADR-RES ovarian): > 100 µM | GI50 (OVCAR-3 ovarian): > 100 µM | TGI (OVCAR-3 ovarian): > 100 µM | GI50 (M14 melanoma): > 100 µM | TGI (M14 melanoma): > 100 µM | GI50 (PC-3 prostate): > 100 µM | TGI (PC-3 prostate): > 100 µM | GI50 (HS 578T breast): > 100 µM | TGI (HS 578T breast): > 100 µM | GI50 (SNB-19 CNS): > 100 µM | TGI (SNB-19 CNS): > 100 µM | GI50 (SR leukemia): 63.1 µM | TGI (SR leukemia): > 100 µM | GI50 (MOLT-4 leukemia): > 100 µM | TGI (MOLT-4 leukemia): > 100 µM | GI50 (SNB-75 CNS): > 100 µM | TGI (SNB-75 CNS): > 100 µM | GI50 (LOX IMVI melanoma): > 100 µM | TGI (LOX IMVI melanoma): > 100 µM | GI50 (NCI-H23 lung): > 100 µM | TGI (NCI-H23 lung): > 100 µM | GI50 (RPMI-8226 leukemia): 78.5 µM | TGI (RPMI-8226 leukemia): > 100 µM | GI50 (HCC-2998 colon): > 100 µM | TGI (HCC-2998 colon): > 100 µM | GI50 (OVCAR-4 ovarian): > 100 µM | TGI (OVCAR-4 ovarian): > 100 µM | GI50 (SF-295 CNS): > 100 µM | TGI (SF-295 CNS): > 100 µM | GI50 (UACC-62 melanoma): 90.9 µM | TGI (UACC-62 melanoma): > 100 µM | GI50 (NCI-H522 lung): 46.4 µM | TGI (NCI-H522 lung): > 100 µM | GI50 (RXF 393 renal): > 100 µM | TGI (RXF 393 renal): > 100 µM | GI50 (HCT-15 colon): > 100 µM | TGI (HCT-15 colon): > 100 µM | GI50 (SF-268 CNS): > 100 µM | TGI (SF-268 CNS): > 100 µM | GI50 (MDA-MB-435): 32.7 µM | TGI (MDA-MB-435): > 100 µM | GI50 (SK-MEL-5 melanoma): 60.1 µM | TGI (SK-MEL-5 melanoma): > 100 µM | GI50 (HT29 colon): > 100 µM | TGI (HT29 colon): > 100 µM | GI50 (HL-60(TB) leukemia): > 100 µM | TGI (HL-60(TB) leukemia): > 100 µM | GI50 (SK-MEL-28 melanoma): > 100 µM | TGI (SK-MEL-28 melanoma): > 100 µM | GI50 (HOP-62 NSCLC): > 100 µM | TGI (HOP-62 NSCLC): > 100 µM | GI50 (IGROV1 ovarian): > 100 µM | TGI (IGROV1 ovarian): > 100 µM | GI50 (COLO 205 colon): > 100 µM | TGI (COLO 205 colon): > 100 µM | GI50 (DU-145 prostate): > 100 µM | TGI (DU-145 prostate): > 100 µM | GI50 (MALME-3M melanoma): > 100 µM | TGI (MALME-3M melanoma): > 100 µM | GI50 (CCRF-CEM leukemia): 65.1 µM | TGI (CCRF-CEM leukemia): > 100 µM | GI50 (OVCAR-8 ovarian): > 100 µM | TGI (OVCAR-8 ovarian): > 100 µM | GI50 (ACHN renal): > 100 µM | TGI (ACHN renal): > 100 µM
